# Tests used:
# [1] = Potato protein solution taste description; conditions: 3 wt % potato protein solution + 14 ppt ethyl cyclohexanoate; Sample A without it: earthy, musty, fishy, bitter
# Method: An aqueous potato protein solution comprising 3 weight % potato protein (Solanic™ 200 by Avebe) was prepared (Sample A).
# [2] = off-note masking in consumables containing non-animal derived protein (general statements)
smiles,measurement,setting,value
CCOC(=O)C1CCCCC1 [ethyl cyclohexanoate],taste description,[1],"earthy, potato-like, but no fishy, bitter taste attributes have been noticed"
same,effect on off-note attributes,"[2]; higher concentrations, 50 ppt or more","provides a significant effect on several off-note attributes, but in addition confers some fruity notes"
same,off-note masking result,[2]; up to 20 ppt (e.g. 0.5 ppt to about 15 ppt) added to a consumable comprising about 3 wt % non-animal derived protein,good results
same,masking of off-notes,"[2]; use around its odor detection threshold, about 0.5 ppt (ng/L) to about 20 ppt (ng/L)",provides the masking of certain off-notes
